Laboratory results as given in patent US10513511B2, “Aqueous suspension formulation comprising 4-(4-(4-(((3R,5R)-5-((1H-1,2,4-triazol-1-yl)methyl)-5-(2,4-difluoro-phenyl)tetrahydrofuran-3-yl)methoxy)-3-methylphenyl) or a pharmaceutically acceptable salt thereof” (PULMOCIDE LIMITED, priority 2015, dated 2019).
Converted amounts (≈) assume the structure as drawn. Like-named read-outs stand apart in the source and are kept apart here.

Experiments:
Assay type in all cases: cell-based
BEAS2B cells = assay: Cell viability: resazurin assay; details: for effect on the viability of BEAS2B bronchial epithelial cells: at concentrations indicated in Table 4
Description: (§1) BEAS2B cells were seeded in 384-well plates (100 μL; 3000/well/; BD Falcon, Catalogue No 353962) in RPMI-LHC8 (RPMI-1640 and LHC8 media combined in equal proportions) one day before experimentation. For cell-free control wells, RPMI-LHC8 (100 μL) was added. Test compounds (0.5 μL of a DMSO solution) were added to give a final DMSO concentration of 0.5% using an Integra VIAFLO 96 (Integra, Zizers, Switzerland). BEAS2B cells were incubated with each test compound for 1 day (37° C./5% CO2 in RPMI-LHC8). After addition of resazurin stock solution (5 μL, 0.04%) the plates were incubated for a further 4 hr (37° C./5% CO2). The fluorescence of each well at 545 nm (excitation) and 590 nm (emission) was determined using a multi-scanner (Clariostar: BMG Labtech). The percentage loss of cell viability was calculated for each well relative to vehicle (0.5% DMSO) treatment. Where appropriate, a CC50 value was calculated from the concentration-response curve generated from the concentration-response curve for each test compound.

[1] = test system: Aspergillus fumigatus TR46 (TR46/Y121F/T289A); assay: Planktonic fungus growth: broth microdilution assay (TR46); details: for MIC: Aspergillus fumigatus, read-out: MIC75 Values against Aspergillus fumigatus isolate TR46
Description: (§2) This assay was conducted using a modified method published by EUCAST (Rodriguez-Tudela, et al., 2008). Spores of Aspergillus fumigatus (NCPF2010, NCPF7010 [methionine 220 mutation], NCPF7099 [Glycine G54 mutation]) from Public Health England, Wiltshire; TR34/L98H mutants from St Louis Hospital, Paris, France; TR46/Y121F/T289A mutants from University of Delhi, Delhi, India) were cultured in Sabouraud dextrose agar for 3 days. A stock spore suspension was prepared from a Sabouraud dextrose agar culture by washing with PBS-tween (10 mL; phosphate buffered saline containing 0.05% Tween-20, 100 U/mL penicillin and 100 U/mL streptomycin). The spore count was assessed using a Neubauer haemocytometer and then adjusted to 10^6 spores/mL with PBS. A working suspension of spores (2×10^5 spores/mL) was prepared in filter sterilised, BSA MOPS RPMI-1640 (50 mL; RPMI-1640 containing 2 mM L-glutamine, 0.5% BSA, 2% glucose, 0.165 M MOPS, buffered to pH 7 with NaOH).
(§3) For the assay, BSA MOPS RPMI-1640 (50 μL/well) was added throughout the 384-well plate (Catalogue number 353962, BD Falcon, Oxford, UK) first. Test compounds (0.5 μL DMSO solution) were then added in quadruplicate using an Integra VIAFLO 96 (Integra, Zizers, Switzerland), and mixed well using a plate mixer. Subsequently 50 μL of the working spore suspension prepared above was added to all wells except non-spore control wells. For non-spore control wells, BSA MOPS-RPMI solution (50 μL/well) was added instead. The plate was covered with a plastic lid, and incubated (35° C. with ambient air) for 48 hr. The OD of each well at 530 nm was determined using a multi-scanner (Clariostar: BMG, Buckinghamshire, UK). The percentage inhibition for each well was calculated and the MIC50, MIC75 and MIC90 values were calculated from the concentration-response curve generated for each test compound.

[2] = test system: Aspergillus fumigatus NCPF7100; assay: Planktonic fungus growth: broth microdilution assay (NCPF7100); details: for MIC: Aspergillus fumigatus, NCPF7100, read-out: MIC75 Values against Aspergillus fumigatus isolate NCPF7100
[3] = test system: Aspergillus fumigatus NCPF7099; assay: Planktonic fungus growth: broth microdilution assay (NCPF7099)
Description: as §2, §3

[4] = test system: Aspergillus fumigatus L98H (TR34/L98H); assay: Planktonic fungus growth: broth microdilution assay (L98H); details: for MIC: Aspergillus fumigatus, read-out: MIC75 Values against Aspergillus fumigatus isolate L98H
Description: as §2, §3

[5] = test system: Aspergillus fumigatus NCPF2010; assay: Planktonic fungus growth: broth microdilution assay (NCPF2010)
Description: as §2, §3

[6] = test system: Aspergillus fumigatus (azole resistant strain: TR34/L98H); assay: Aspergillus fumigatus infection of human alveoli bilayers (transwells), azole resistant strain; details: TR34-L98H, Compound 0.3 μg/mL upper chamber, posaconazole 0.1 μg/mL lower chamber, combination of both
Description: In vitro models of human alveoli, consisting of a bilayer of human alveolar epithelial cells and endothelial cells, were prepared as previously described (Hope et al., 2007). This system allows administration of a test compound to the upper (“air” space) and/or lower (“systemic” space) compartments. This flexibility has been exploited to explore the effects of combination treatment by dosing Compound (I) to the upper chamber and posaconazole or other anti-fungal agents to the lower chamber. Primary human pulmonary artery endothelial cells (HPAEC) were harvested and diluted to 10^6 cells/mL in EGM-2 media (Lonza, Basel, Switzerland). Transwells were inverted and the cell suspension (100 μL/well) applied to the base of each transwell. The inverted transwells were incubated at RT within a flow hood for 2 hr after which they were turned upright. EGM-2 media was added to the lower (700 μL/well) and upper (100 μL/well) compartments and the transwells were incubated for 48 hr (37° C., 5% CO2). The EGM-2 media in the lower compartment was then replaced with fresh EGM-2 media. A549 cells were harvested and diluted to 5×10^5 cells/mL in 10% EBM, then added to the upper compartment (100 μL/well) of all transwells and the plates incubated for 72 hr (37° C., 5% CO2). Conidia of itraconazole sensitive Aspergillus fumigatus s (NCPF2010) and itraconazole resistant (TR34-L98H) strains were cultured separately in Sabouraud dextrose agar for 3 days. A stock conidia suspension of either strain was prepared from a Sabouraud dextrose agar culture by washing with PBS-tween (10 mL; PBS containing 0.05% Tween-20, 100 U/mL Penicillin and 100 U/mL Streptomycin). The conidia count was assessed using a Neubauer haemocytometer and adjusted to 10^6 conidia/mL with PBS. A working stock of conidia was prepared in EBM (10^5 conidia/mL) immediately prior to use.
Test and reference compounds (or neat DMSO as the vehicle) were added to the appropriate wells of 24-well plates (3 μL/well containing 600 μL of 2% FBS EBM) for lower compartment treatment and to 96-well plates (1 μL/well containing 200 μL of 2% FBS EBM) for the treatment of the upper compartment, to provide a final DMSO concentration of 0.5%. The media in the upper compartment was aspirated and that containing the appropriate test and reference compounds, or vehicle, were added (100 μL/well). Transwells were then transferred into the 24-well plate containing the test and reference compounds or DMSO vehicle. After incubation for 1 hr (35° C., 5% CO2) the conidia suspension (10 μL/well) was added to the upper compartment of each transwell. Plates were then incubated for 24 hr (35° C., 5% CO2). Supernatants from each compartment (5 μL/compartment) were collected and stored (−20° C.). Media was replaced daily after collection of the supernatants and all wells were treated with test and reference compounds or with DMSO, as described above, for 3 days. Samples continued to be collected until fungal growth was visible by eye in all transwells. The levels of GM in the supernatant in lower compartment were then measured by ELISA (BioRad, CA, USA) as an index of Aspergillus fumigatus invasion.

[7] = Cell viability: resazurin assay; details: human, BEAS2B cells; 1 day incubation, resazurin; n = 3
Description: as §1

[8] = test system: Aspergillus fumigatus (NCPF2010); assay: Aspergillus fumigatus infection of BEAS2B bronchial epithelial cells (galactomannan); details: NCPF2010, 24 h, read-out: Infection of BEAS2B cells MIC50
Description: BEAS2B cells were seeded in 96-well plates (100 μL; 3×10^4 cells/well; Catalogue No 3596, Sigma Aldrich, Dorset, UK) in 10% FBS RPMI-1640 and were then incubated (37° C., 5% CO2) for one day before experimentation. Test compounds (0.5 μL DMSO solution) or vehicle (DMSO) were added to each well to give a final DMSO concentration of 0.5%. BEAS2B cells were incubated with test compounds for 1 hr (35° C., 5% CO2) before infection with Aspergillus fumigatus (20 uL; Public Health England) conidia suspension (0.5×10^5/mL in 10% FBS RPMI-1640). The plate was incubated for 24 hr (35° C., 5% CO2). Supernatant (50 uL) was collected and transferred to a PCR plate (Catalogue No L1402-9700, Starlab, Milton Keynes, UK), which was frozen (−20° C.) until use. After thawing, supernatant (5 μL) was diluted 1:20 by adding R7-PBS solution (95 μL; 1:4 R7 to PBS; Bio-Rad Laboratories, Redmond, Wash., USA). Galactomannan levels in these samples (50 μL) were measured using Platelia GM-EIA kits (Bio-Rad Laboratories, Redmond, Wash., USA). The percentage inhibition for each well was calculated and the IC50 value was calculated from the concentration-response curve generated for each test compound.

[9] = broth microdilution assay, n = 2-3
[10] = Aspergillus fumigatus, NCPF7099, n = 2-3, read-out: MIC75 Values against Aspergillus fumigatus isolate NCPF7099
[11] = Aspergillus fumigatus, NCPF2010, n = 2-3, read-out: MIC75 Values against Aspergillus fumigatus isolate NCPF2010

| SMILES | CC50 at 1 day [7] | effect on the viability of BEAS2B bronchial epithelial cells (BEAS2B cells) | MIC [1] | MIC [2] | MIC [3, 10] | MIC [4] | MIC [5, 11] | other results |
| --- | --- | --- | --- | --- | --- | --- | --- | --- |
| C[C@@H]1[C@H](O)[C@@H](C)/C=C/C=C/C=C/C=C/C=C/C=C/C=C/[C@H](O[C@@H]2O[C@H](C)[C@@H](O)[C@H](N)[C@@H]2O)C[C@@H]2O[C@](O)(C[C@@H](O)C[C@@H](O)[C@H](O)CC[C@@H](O)C[C@@H](O)CC(=O)O[C@H]1C)C[C@H](O)[C@H]2C(=O)O [Amphotericin B, reference compound] |  |  |  |  |  |  |  | CC50 (BEAS2B cells; 1 day incubation, resazurin, n = 3): 2.34 µM; MIC75 Values against Aspergillus fumigatus isolate TR46 [1, 9]: 0.187 µM (≈ 0.173 µg/mL); MIC75 Values against Aspergillus fumigatus isolate NCPF7100 [2, 9]: 0.523 µM (≈ 0.483 µg/mL); MIC ([3]; n = 2-3, read-out: MIC75 Values against Aspergillus fumigatus isolate NCPF7099): 0.248 µM (≈ 0.229 µg/mL); MIC75 Values against Aspergillus fumigatus isolate L98H [4, 9]: 0.195 µM (≈ 0.18 µg/mL); MIC ([5]; n = 2-3, read-out: MIC75 Values against Aspergillus fumigatus isolate NCPF2010): 0.407 µM (≈ 0.376 µg/mL) |
| Cc1cc(N2CCN(c3ccc(C(=O)NC4CCCCC4O)cc3)CC2)ccc1OC[C@@H]1CO[C@@](Cn2cncn2)(c2ccc(F)cc2F)C1 (stereo partly drawn) [Compound (I), 4-(4-(4-(((3R,5R)-5-((1H-1,2,4-triazol-1-yl)methyl)-5-(2,4-difluorophenyl)tetrahydrofuran-3-yl)methoxy)-3-methylphenyl)piperazin-1-yl)-N-(2-hydroxycyclohexyl)benzamide] |  |  |  |  |  |  |  | GM Levels in the Lower Chamber, OD value ([6]; Day 0): 0 OD; GM Levels in the Lower Chamber, % inhibition vs. vehicle control ([6]; Day 1): 98%; GM Levels in the Lower Chamber, OD value ([6]; Day 1): 0.016 OD; GM Levels in the Lower Chamber, % inhibition vs. vehicle control ([6]; Day 2): 24%; GM Levels in the Lower Chamber, OD value ([6]; Day 2): 0.84 OD; GM Levels in the Lower Chamber, % inhibition vs. vehicle control ([6]; Day 3): 4.6%; GM Levels in the Lower Chamber, OD value ([6]; Day 3): 1.01 OD; DFB50: Days taken to reach a fungal burden of 50% of control [6]: 1.53 days |
| Cc1cc(N2CCN(c3ccc(C(=O)N[C@@H]4CCCC[C@H]4O)cc3)CC2)ccc1OC[C@@H]1CO[C@@](Cn2cncn2)(c2ccc(F)cc2F)C1 [Compound (Ib), 4-(4-(4-(((3R,5R)-5-((1H-1,2,4-triazol-1-yl)methyl)-5-(2,4-difluorophenyl)tetrahydrofuran-3-yl)methoxy)-3-methylphenyl)piperazin-1-yl)-N-((1R,2R)-2-hydroxycyclohexyl)benzamide] | > 14.6 µM | no or little effect | 0.334 µM (≈ 0.229 µg/mL) | 0.0873 µM (≈ 0.06 µg/mL) | 0.0862 µM (≈ 0.0592 µg/mL) | 0.303 µM (≈ 0.208 µg/mL) | 0.00802 µM (≈ 0.00551 µg/mL) |  |
| Cc1cc(N2CCN(c3ccc(C(=O)N[C@H]4CCCC[C@H]4O)cc3)CC2)ccc1OC[C@@H]1CO[C@@](Cn2cncn2)(c2ccc(F)cc2F)C1 [Compound (Ic), 4-(4-(4-(((3R,5R)-5-((1H-1,2,4-triazol-1-yl)methyl)-5-(2,4-difluorophenyl)tetrahydrofuran-3-yl)methoxy)-3-methylphenyl)piperazin-1-yl)-N-((1S,2R)-2-hydroxycyclohexyl)benzamide] | > 14.6 µM | no or little effect | 0.164 µM (≈ 0.113 µg/mL) | 0.0109 µM (≈ 0.00749 µg/mL) | 0.0115 µM (≈ 0.0079 µg/mL) | 0.0549 µM (≈ 0.0377 µg/mL) | 0.00227 µM (≈ 0.00156 µg/mL) | MIC50 [8]: 0.00186 µM (≈ 0.00128 µg/mL) |
| Cc1cc(N2CCN(c3ccc(C(=O)N[C@@H]4CCCC[C@@H]4O)cc3)CC2)ccc1OC[C@@H]1CO[C@@](Cn2cncn2)(c2ccc(F)cc2F)C1 [Compound (Id), 4-(4-(4-(((3R,5R)-5-((1H-1,2,4-triazol-1-yl)methyl)-5-(2,4-difluorophenyl)tetrahydrofuran-3-yl)methoxy)-3-methylphenyl)piperazin-1-yl)-N-((1R,2S)-2-hydroxycyclohexyl)benzamide] | > 14.6 µM | no or little effect | 0.316 µM (≈ 0.217 µg/mL) | 0.0252 µM (≈ 0.0173 µg/mL) | 0.0117 µM (≈ 0.00804 µg/mL) | 0.07 µM (≈ 0.0481 µg/mL) | 0.00851 µM (≈ 0.00584 µg/mL) |  |
